{"source": "paper PMC11846984", "about": "(Nature Communications, 2025)", "target": "T1, GPX4 (Mus musculus, UniProt O70325)", "T1 sequence (O70325 28-197)": "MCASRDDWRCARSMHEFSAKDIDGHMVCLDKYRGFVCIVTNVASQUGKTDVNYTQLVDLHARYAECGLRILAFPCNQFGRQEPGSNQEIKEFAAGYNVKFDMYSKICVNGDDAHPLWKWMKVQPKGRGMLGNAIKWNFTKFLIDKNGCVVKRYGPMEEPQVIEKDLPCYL", "experiment": "cellular thermal shift assay", "assay_type": "cell-based", "data": [{"molecule": "COc1ccc(N(C(=O)CCl)C(C(=O)NCCc2ccccc2)c2cccs2)cc1Cl", "note": "(stereo not shown) [ML162]", "values": [{"measurement": "cellular thermal shift assay (CETSA)", "value": "Both the GPX4-targeting ligand ML162 and ML-NR were found to enhance the thermal stability of the GPX4 protein"}]}]}
